Measurements taken from patent US11535621B2, “Heterobicyclic amides as inhibitors of CD38” (Ribon Therapeutics, Inc., priority 2019, dated 2022).

Columns and labels:
[1] = system: B16-F10 tumor; assay: Efficacy study in a B16F10 model (survival); type: in vivo, C57BL/6 mouse; conditions: Example 7 300 mg/kg p.o. QD in combination with anti-mPD-L1 10 mg/kg i.p. QW; over vehicle or anti-mPD-L1 treated mice; p value <0.0001
Experimental: B16-F10 tumor cells (ATCC, Cat #CRL-6475) were maintained in vitro as a monolayer culture in DMEM medium (Gibco, Cat #11995-040) supplemented with 10% heat inactivated fetal bovine serum (Biological Industries, Cat #04-002-1A), 100 U/mL penicillin and 100 µg/mL streptomycin (Hyclone, Cat #SV30010) at 37° C. in an atmosphere of 5% CO2 in air. The tumor cells were routinely subcultured twice weekly by trypsin-EDTA (Gibco, Cat #25200-072) treatment. The cells growing to a confluency around 70%-80% were harvested and counted for tumor inoculation. The cultured B16-F10 cells were harvested, re-suspended in base medium at a density of 2×10^7 cells/mL with viability>90%. 6-8 weeks of Female C57BL/6 mouse (Shanghai LingChang Biotech Co., LTD) was inoculated subcutaneously at the right flank with 1×10^6 in 0.05 mL base medium for tumor development. Tumors were calipered in two dimensions to monitor growth as the mean volume approached the desired range. Tumor volume (TV) was calculated using the formula: TV=0.5 a×b2 where a and b are the long and short diameters of the tumor.
Mice were assigned into 4 groups with 12 mice per group. […] The tumor sizes were measured three times per week during the treatment. Survival was monitored with tumor volume exceeding 2000 mm3 as endpoint. […]

[2] = biological target: Human CD38 (Homo sapiens (Human), UniProt P28907); assay: CD38 enzyme assay; type: biochemical; conditions: 2 nM CD38, NAD+ substrate, absorbance at 405 nm
Outline: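 IC50 values come from fitting % inhibition against compound concentration with a 4-parameter logistic, or a 3-parameter fit with top/bottom fixed at 100/0 or Hill at 1. Inhibition is scaled between DMSO wells and positive-control wells treated with a quinolinone CD38 inhibitor.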

Human CD38, sequence (P28907 whole entry): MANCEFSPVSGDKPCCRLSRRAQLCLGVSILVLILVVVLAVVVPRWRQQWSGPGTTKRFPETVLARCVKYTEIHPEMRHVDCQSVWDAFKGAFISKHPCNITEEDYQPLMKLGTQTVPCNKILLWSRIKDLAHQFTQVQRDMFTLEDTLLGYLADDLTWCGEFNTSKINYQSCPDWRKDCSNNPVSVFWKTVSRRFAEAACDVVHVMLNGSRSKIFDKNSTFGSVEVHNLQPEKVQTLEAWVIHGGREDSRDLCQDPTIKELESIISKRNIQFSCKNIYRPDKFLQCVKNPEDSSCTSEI

| SMILES | IC50 [2] [nM] | percent survival of B16-F10 tumor bearing mice [1] |
| --- | --- | --- |
| COCCO[C@H]1CC[C@H](NC(=O)c2nc(-n3ccnc3)nc3cc[nH]c23)CC1 [Example 7, 2-(1H-Imidazol-1-yl)-N-((1r,4r)-4-(2-methoxyethoxy)cyclohexyl)-5H-pyrrolo[3,2-d]pyrimidine-4-carboxamide] | 10 to 100 | significant survival benefit |
| CN1CCC(NC(=O)c2nc(-n3ccnc3)nc3cc[nH]c23)C1 (stereo not shown) [Example 74, 2-(1H-Imidazol-1-yl)-N-(1-methylpyrrolidin-3-yl)-5H-pyrrolo[3,2-d]pyrimidine-4-carboxamide] | 100 to 1000 | – |
| CC(F)(F)CN[C@H]1CC[C@@H](NC(=O)c2nc(-n3ccnc3)cc3cn[nH]c23)CC1 [Example 194, N-((1s,4s)-4-((2,2-difluoropropyl)amino)cyclohexyl)-5-(1H-imidazol-1-yl)-1H-pyrazolo[3,4-c]pyridine-7-carboxamide] | 100 to 1000 | – |
| O=C(NC1CCNC1)c1nc(-n2ccnc2)nc2cc[nH]c12 (stereo not shown) [Example 73, 2-(1H-Imidazol-1-yl)-N-(pyrrolidin-3-yl)-5H-pyrrolo[3,2-d]pyrimidine-4-carboxamide] | 100 to 1000 | – |
| O=C(NC1CCN(C(=O)CN2CCOCC2)CC1)c1nc(-n2ccnc2)nc2cc[nH]c12 [Example 143] | 10 to 100 | – |
| CC(=O)NC[C@H]1CC[C@H](NC(=O)c2nc(-n3ccnc3)cc3cn[nH]c23)CC1 [Example 209, N-((1r,4r)-4-(acetamidomethyl)cyclohexyl)-5-(1H-imidazol-1-yl)-1H-pyrazolo[3,4-c]pyridine-7-carboxamide] | 10 to 100 | – |
| CC(C)[C@@H](O)CO[C@H]1CC[C@H](NC(=O)c2nc(-n3ccnc3)nc3cc[nH]c23)CC1 (single isomer, unassigned) [Example 119a] | 10 to 100 | – |
| COCCO[C@H]1CC[C@H](NC(=O)c2nc(-n3ccnc3)cc3ccsc23)CC1 [Example 198, 5-(1H-imidazol-1-yl)-N-((1r,4r)-4-(2-methoxyethoxy)cyclohexyl)thieno[2,3-c]pyridine-7-carboxamide] | 10 to 100 | – |
| O=C(N[C@H]1CC[C@H](NCC(F)F)CC1)c1nc(-n2ccnc2)nc2ccsc12 [Example 221, N-((1r,4r)-4-(2,2-difluoroethylamino)cyclohexyl)-2-(1H-imidazol-1-yl)thieno[3,2-d]pyrimidine-4-carboxamide] | 10 to 100 | – |
| O=C(NC1CCN(CC(F)(F)F)CC1)c1nc(-n2ccnc2)nc2cc[nH]c12 [Example 52, 2-(1H-Imidazol-1-yl)-N-(1-(2,2,2-trifluoroethyl)piperidin-4-yl)-5H-pyrrolo[3,2-d]pyrimidine-4-carboxamide] | 10 to 100 | – |
| O=C(N[C@H]1CC[C@H](F)CC1)c1nc(-n2ccnc2)nc2cc[nH]c12 [Example 168] | 10 to 100 | – |
| O=C(N[C@H]1CC[C@H](NCC(F)(F)F)CC1)c1nc(-n2ccnc2)nc2ccsc12 [Example 220, 2-(1H-imidazol-1-yl)-N-((1r,4r)-4-(2,2,2-trifluoroethylamino)cyclohexyl)thieno[3,2-d]pyrimidine-4-carboxamide] | 10 to 100 | – |

The next lines start with results.

| IC50 [2] [nM] | SMILES | percent survival of B16-F10 tumor bearing mice [1] |
| --- | --- | --- |
| < 10 | N#CCO[C@H]1CC[C@H](NC(=O)c2nc(-n3ccnc3)nc3cn[nH]c23)CC1 [Example 214, N-((1r,4r)-4-(cyanomethoxy)cyclohexyl)-5-(1H-imidazol-1-yl)-1H-pyrazolo[4,3-d]pyrimidine-7-carboxamide] | – |
| < 10 | O=C(N[C@H]1CC[C@H](C(F)(F)F)CC1)c1nc(-n2ccnc2)nc2cc[nH]c12 [Example 39b, 2-(1H-imidazol-1-yl)-N-((1r,4r)-4-(trifluoromethyl)cyclohexyl)-5H-pyrrolo[3,2-d]pyrimidine-4-carboxamide] | – |
| < 10 | O=C(Nc1cc(Cl)ccn1)c1nc(-n2ccnc2)nc2cc[nH]c12 [Example 142] | – |
| < 10 | O=C(N[C@H]1CC[C@H](CO)CC1)c1nc(-n2ccnc2)nc2cc[nH]c12 [Example 174] | – |
| < 10 | Cn1cc(NC(=O)c2nc(-n3ccnc3)nc3cc[nH]c23)cn1 [Example 99, 2-(1H-Imidazol-1-yl)-N-(1-methyl-1H-pyrazol-4-yl)-5H-pyrrolo[3,2-d]pyrimidine-4-carboxamide] | – |
| < 10 | CN(C)CCOc1ccc(NC(=O)c2nc(-n3ccnc3)nc3ccsc23)cn1 [Example 151] | – |
